{"source": "patent US12018096B2", "about": "“Potent peptide inhibitors of protein aggregation” (COUNCIL OF SCIENTIFIC & INDUSTRIAL RESEARCH, priority 2017, dated 2024)", "key": {"[1]": {"tested_on": "Rat phaeochromocytoma (PC12) cells", "test": "MTT assay with PC12 cells", "format": "cell-based", "procedure": "MTT ((3-(4,5-Dimethylthiazol-2-yl)-2,5-diphenyltetrazolium bromide)) cell toxicity experiments were performed using Rat phaeochromocytoma (PC12) neuronal-like cells to assess toxicity of α-syn and the protective effects of the Pep.2 and CycPep.2 generated in this study. MTT assay (FIG. 5) was performed with PC12 cells incubated with α-syn fibrillation end products in presence and absence of peptides. […] However, with similar concentration of α-syn, the presence of Pep.2 and CycPep.2 improved cellular viability by 30% and >99% respectively.\nMTT experiments were performed using Rat phaeochromocytoma (PC12) cells to assess cytotoxic effect of α-syn. Inhibition of PC12 cell redox activity is specific and early indicator of cell death. In MTT assay, water soluble MTT dye (3-(4, 5-dimethylthiazol-2-yl)-2,5-diphenyltetrazolium bromide) (#M2003 Sigma-Aldrich) is converted to formazan, and the conversion is monitored via absorbance measurement at 570 nm. The conversion of the MTT dye to formazan is dependent of redox status of the cell and thus the change in absorbance can be used as an indicator of the cellular viability in the assay.\nPC12 cells were maintained in growth media RPMI 1640 supplemented with 10% horse serum, 5% fetal bovine serum, and antibiotics penicillin and streptomycin. […] The absorbance was measured at 570 nm using a multimode plate reader (TECAN infinite M200 PRO). […]"}, "α-syn": {"biological_target": "T1, α-syn (Homo sapiens, UniProt P37840)", "T1 construct": "His6 (N); made in house; host or cells: E. coli Rossetta (DE3), pET29a based expression vector", "test": "In vitro fibrillation assay (Thioflavin T fluorescence)", "format": "biochemical", "conditions": "α-syn 400 μM, purified peptide at equimolar concentration, 37° C., 900 rpm", "procedure": "ThT is a fluorescent dye which is known to bind specifically to […] rich fibrils, and such binding further increases its fluorescence intensity. The fibrillation assay was carried out with α-syn in the presence and absence of above identified interacting phages.\nThe N-terminal His6-tagged human wild-type α-syn was expressed in E. coli Rossetta (DE3) (#70954 Novagen) using pET29a based expression vector. After IPTG induction bacterial cell pellets were harvested by centrifugation and resuspended in 10 mM Tris-HCl, pH 8.0, 1 mM EDTA, 1 mM Pierce protease inhibitor cocktail. […] Briefly, cell lysis was carried out by sonication, lysate was boiled at 95° C. for 30 minutes, followed by centrifugation at 10,000×g for 30 minutes at 4° C. […] Protein was quantitated using BCA protein estimation kit as per manufacturer's protocol (#23227 Thermo Scientific).\nThioflavin T (ThT) (4 mM) was added to 400 μM of purified α-syn with and without phages (10^11) or purified peptides at equimolar concentration in a 96 microwell plate. The plate was incubated at 37° C. with a shaking speed of 900 rpm in linear mode in a multimode plate reader (TECAN infinite M200 PRO). Fluorescence kinetics was measured after every 15 minutes with emission wavelength of 482 nm upon excitation at 442 nm. […]"}}, "note": "Entries after “also recorded” stand apart in the source; their conditions may differ. No end group written: not given here.", "data": [{"substance": "Pep.2: SEQ ID NO 2; parent peptide identified from phage display against α-syn (Ac-SACNHHHHLHCGG; not fully specified; cysteine pairing not given here)", "values": [{"measurement": "α-syn associated toxicity in PC12 cells (absorbance at 570 nm)", "setting": "[1]; 10 μM α-syn with peptide in equimolar ratio, 24 hours", "value": "reduced α-syn associated toxicity"}, {"measurement": "improved cellular viability in presence of α-syn", "setting": "[1]; PC12 cells, α-syn fibrillation end products with peptide in equimolar ratio, 24 h, α-syn alone gives loss of viability by about 50%", "value": 30, "unit": "%"}]}, {"substance": "Pep.2d: SEQ ID NO 1; truncated derivative of Pep.2 (HHHH; Sequence retrieved through Sequence logo)", "values": [{"measurement": "inhibition of α-syn fibrillation (ThT fluorescence)", "setting": "α-syn", "value": "inhibits α-syn fibrillation; also recorded: able to reduce α-syn fibrillation comparable with Pep.2"}]}]}
